Measurements reported in patent US7585851B2, “3′-prodrugs of 2′-deoxy-β-L-nucleosides” (priority 2000, dated 2009).
Entries after “also recorded” stand apart in the source; their conditions may differ. Read-outs that look alike come from different tables or passages of the source.

Legend:
[1] = human
bone marrow cells = experiment: Mouse micronucleus assay; type: in vivo; settings: single oral dose up to 2000 mg/kg, male and female mice
Method: L-dC was tested for its potential to induce micronucleated polychromatic erythrocytes (MPCE) in the bone marrow cells of male and female mice. L-dC at concentrations of 500, 1000, and 2000 mg/kg and positive and negative controls were tested. Study […] as a single dose. Two harvests approximately 24 and 48 hours after L-dC or negative control administration were performed, and a single harvest approximately 24 hours after positive control administration was performed. Five male and five female mice per dose group per harvest time were used. The percentage of polychromatic erythrocytes (PCE) and MPCE frequency were determined for each timepoint.

[2] = tested on: Daudi, Burkitt's B-cell lymphoma
[3] = Single dose bioavailability of dival-L-dC (IV and oral) in cynomologus monkey; type: in vivo, cynomologus monkey (macaca fascicularis)
Text: The drug was quantitated in plasma and urine with a liquid chromatography-mass spectrometry (LC-MS) technique.

[4] = type: in vivo; settings: woodchuck; for AUCt→24: t = […]; for Cmax: analyte = label, read-out: Cmax in plasma
[5] = Bioavailability of the prodrugs of L-dC in monkeys, with and without L-dT; settings: oral
Influenza A/H3N2 = experiment: Antiviral panel: Influenza A/H3N2 (MDCK); type: cell-based
[6] = Oral bioavailability of L-dC via dival-L-dC in cynomologus monkey (HPLC study); settings: cynomolgus monkey, in vivo, po
Text: The drug was quantitated in plasma and in urine using HPLC analysis.

HSV-2 = experiment: Antiviral panel: HSV-2 (HFF); type: cell-based
Influenza A/H1N1 = experiment: Antiviral panel: Influenza A/H1N1 (MDCK); type: cell-based
cultured CHO cells = experiment: Chromosomal aberration assay; type: cell-based, Chinese hamster; settings: with and without metabolic activation, 5000 μg/mL
[7] = tested on: cytosolic extracts of HepG2 cells; experiment: Steady state phosphorylation kinetics in HepG2 cytosolic extracts; type: biochemical, human
[8] = rat, in vivo
[9] = tested on: MDCK, canine kidney epithelial cells
WHV = settings: 0.01-10 mg/kg/day orally, woodchucks
[10] = rat
Method: The drug was detected and the concentration determined in plasma and urine using a reverse-phase HPLC technique. The data were analyzed by a non-modeling mathematical method and the AUCs derived by the linear trapezoidal rule.

Parainfluenza type 3 = experiment: Antiviral panel: Parainfluenza type 3 (MA-104); type: cell-based
[11] = type: in vivo, cynomologus monkey
Method: The pharmacokinetics of L-dC following IV and oral administration of L-dC to cynomologus monkeys was determined. […] Following a six week washout period, the same three monkeys received an identical oral dose of L-dC. Blood samples for pharmacokinetic analysis were collected pre-dose and at 0.25, 0.5, 1, 2, 3, 6, 8 and 24 hours after dosing. Urine samples for pharmacokinetic analyses were collected via pan catch pre-dose and over the following intervals post-dose: 0-2, […], 4-8, and 8-12 hours, and then over 12-hour intervals thereafter through 336 hours post-dose. The drug was detected and the concentration determined using a reverse-phase high-performance liquid chromatography technique.

HepG2 cells = experiment: Mitochondrial toxicity assay in HepG2 cells; type: cell-based, human
[12] = tested on: Salmonella typhimurium strains TA98, TA100, TA1535, and TA1537; experiment: Plate incorporation mutation assay, S. typhimurium; settings: with and without rat liver S-9; up to 5000 mg/plate, 5000 μg/plate
Method: L-dC was tested for its potential to cause mutation at the histidine operon of Salmonella typhimurium strains TA98, TA100, TA1535, and TA1537 and at the tryptophan opeton of Escherichia coli strain WP2uvrA. L-dC at concentrations of […] plus positive and negative controls were tested. […] After incubation for approximately 68 hours, L-dC and controls were evaluated for the number of revertants per plate and integrity of the background microcolony lawn.

[13] = tested on: HFF, human foreskin fibroblast
[14] = dival-L-dC 10 mg/kg oral, monkey
[15] = L-dC 10 mg/kg IV, cynomologus monkey
[16] = L-dC 10 mg/kg oral, cynomologus monkey
[17] = HepG2, L-dC 10, FIAU 10, ZDV 50, ddC 1 μM

## Nc1ccn([C@@H]2C[C@@H](O)[C@H](CO)O2)c(=O)n1 [L-dC, 2′-deoxy-β-L-cytidine]
[1]
  plasma protein binding: 19.7%±5.9%
Bone marrow cells
  micronucleus assay result: negative; also recorded: not clastogenic
[2]
  CC50: >50 µg/mL
[3]; IV dival-L-dC, analyte = label
  share of drug excreted / recovered dose in urine, by analyte: ~93%
[3]; Intravenous (10 mg/kg Dival-L-dC), analyte = label, read-out: Cmax of each metabolite
  Cmax: 24.6 µM
[3]; Oral (10 mg/kg dival-L-dC), analyte = label, read-out: Cmax of each metabolite
  Cmax: 8.26 µM
[3]; dival-L-dC 10 mg/kg IV, monkey
  AUC0.25→8 of L-dC: 19.8 µM·h
  CL of L-dC: 16.8 mL/min/kg
  Vd of L-dC: 2.46 L/kg
  t1/2 of L-dC: 1.73 h
[3]; dival-L-dC 10 mg/kg IV, monkey, read-out: Cmax of L-dC
  Cmax: 24.6 µM
[3]; [14]
  AUC0.25→8 of L-dC: 14.0 µM·h
  Tmax of L-dC: 0.67 h
  t1/2 of L-dC: 2.28 h
[3]; oral dival-L-dC
  share of plasma drug levels at Cmax: > 99%
[3]; oral dival-L-dC, analyte = label
  share of drug excreted / recovered dose in urine, by analyte: ~95%
[4]; L-dC 10 mg/kg IV
  CL: 6.5 mL/min/kg
  Tmax: 0 h
  Vd: 1.17 L/kg
  t1/2: 2.85 h
  AUCt→24: 174 µM·h
  Cmax: 112 µM
[4]; L-dC 10 mg/kg PO vs IV
  oral bioavailability F: 9.57%
[4]; L-dC 10 mg/kg PO
  Tmax: 3 h
  t1/2: 5.22 h
  AUCt→24: 11.3 µM·h
  Cmax: 1.37 µM
[5]; coadministered with 10 mg/kg L-dT
  % BA w/ L-dT: 11.9 ± 1.7%
[5]; estimated relative to AUC of L-dC (oral dose)
  % BA (bioavailability of L-dC): 16.4 ± 5.0%
Influenza A/H3N2
  EC50: > 100 µM
[6]
  share of drug excreted / recovered dose in urine, by analyte: ~89%
HSV-2
  EC50: >100 µg/mL
Influenza A/H1N1
  EC50: > 100 µM
Cultured CHO cells
  chromosomal aberrations: no evidence of chromosomal aberrations
[7]
  Vmax of phosphorylation: 1.12 mmol/min/mg protein
[8]
  Tlast: 24 h
[8]; 1000 mg/kg
  estimated terminal phase half-lives: 9 to 17 h
[8]; 2000 mg/kg
  estimated terminal phase half-lives: 6 to 8 h
[8]; po, 2000 mg/kg/day
  AUClast: 461 µg·h/mL
[9]
  CC50: > 100 µM
WHV
  toxicity during four-week treatment and eight-week follow-up: no drug-related toxicity; also recorded: no toxicity was observed
[10]; L-dC 10 mg/kg IV
  AUC0.25→8 (table head AUC0-25-28): 30100 µM·h
  CL: 24 mL/min/kg
  Tmax: 0 h
  Vd: 2.53 L/kg
  t1/2: 1.21 h
[10]; L-dC 10 mg/kg oral vs IV
  oral bioavailability F: 15.4%
[10]; L-dC 10 mg/kg oral
  AUC0.25→8 (table head AUC0-25-28): 4770 µM·h
  Tmax: 1.0 h
  t1/2: 2.52 h
Parainfluenza type 3
  EC50: > 100 µM
[11]; IV
  renal clearance as share of total L-dC clearance: 87%
[11]; IV L-dC, analyte = label
  share of the dose recovered in the urine, by analyte: 94%
[11]; IV, within 2 hours
  administered dose recovered in urine: 71%
[11]; [15]
  CL: 8.83 mL/min/kg
  CLR: 7.67 mL/min/kg
  Cmax: 95.7 µM
  Tmax: 0 h
  Vd: 1.22 L/kg
  t1/2: 1.59 h
[11]; L-dC 10 mg/kg oral vs IV, cynomologus monkey
  oral bioavailability F: 16.4%
[11]; [16]
  Cmax: 3.38 µM
  Tmax: 2.33 h
  terminal t1/2: 2.95 h
[11]; oral L-dC, analyte = label
  share of drug excreted / recovered dose in urine, by analyte: ~69%
[11]; after 72 hours
  administered oral dose recovered in urine: 15.5%±8%
[11]; within 12 hours
  administered oral dose recovered in urine: Approximately 8.5%
HepG2 cells; HepG2, 14 days, concentrations up to 0.10 μM
  effect on mitochondrial DNA content: no effect
HepG2 cells; HepG2, after 14 days of treatment
  CC50: > 2000 µM
HepG2 cells; [17]
  L-Lactate, % of Control: 101 ± 2 % of Control
  Lipid Droplet Formation: negative
  mtDNA, % of Control: 107 ± 8 % of Control
HepG2 cells; HepG2, L-dC 10, FIAU 10, ZDV 50, ddC 1 μM, electron microscopy
  Mitochondrial Morphology: No discernible changes; also recorded: normal
[12]
  mutagenicity: no evidence of mutagenicity; also recorded: not mutagenic
[13]
  CC50: >100 µg/mL
